# Experimental data from the NIST ThermoML archive (doi:10.1016/j.tca.2011.01.039).
# ± gives the expanded uncertainty stated by the source.
# Settings: Fluid (supercritical or subcritical phases)
smiles,measurement,setting,value
O=C=O [carbon dioxide],mass density,"308 K, 10000 kPa",714.84 ± 7.1 kg/m3
same,mass density,"308 K, 12000 kPa",768.42 ± 5.7 kg/m3
same,mass density,"308 K, 15000 kPa",816.06 ± 5.3 kg/m3
same,mass density,"308 K, 18000 kPa",848.87 ± 5.2 kg/m3
same,mass density,"308 K, 21000 kPa",874.4 ± 5.2 kg/m3
same,mass density,"318 K, 10000 kPa",502.57 ± 9.6 kg/m3
same,mass density,"318 K, 12000 kPa",659.73 ± 7.3 kg/m3
same,mass density,"318 K, 15000 kPa",743.17 ± 5.7 kg/m3
same,mass density,"318 K, 18000 kPa",790.18 ± 5.3 kg/m3
same,mass density,"318 K, 21000 kPa",823.71 ± 5.2 kg/m3
same,mass density,"328 K, 10000 kPa",326.4 ± 11 kg/m3
same,mass density,"328 K, 12000 kPa",506.85 ± 9 kg/m3
same,mass density,"328 K, 15000 kPa",654.94 ± 6.6 kg/m3
same,mass density,"328 K, 18000 kPa",724.13 ± 5.5 kg/m3
same,mass density,"328 K, 21000 kPa",768.74 ± 5.3 kg/m3
